Test results: patent US9790253B2, “OSW-1 analogs and conjugates, and uses thereof” (priority 2011, dated 2017)
Read-outs that look alike come from different tables or passages of the source.

Legend:
HL-60 = settings: cited from earlier work
P388 tumor cells = settings: single i.p. treatment of 0.01 mg/kg; cited from earlier work
[1] = test system: OSBP1 localization in HCT-116 cells; assay: OSBP1 localization by immunofluorescence microscopy, HCT-116; format: cell-based, human; settings: 4 h treatment
Method: (§1) Immunofluorescence microscopy. HCT-116 or A549 (adenocarcinomic human alveolar basal epithelial) cells were plated on coverslips in 6-well plates. After 72 h, the culture media was removed and replaced with media containing either compound or vehicle control. At the indicated time-points, the cells were fixed for 10 min using 3.7% formaldehyde in PBS. The coverslips were washed with PBS and permeabilized for 5 min with 0.5% Triton X-100 in PBS. Following PBS washing, the coverslips were blocked for 30 min using Image-iT™ FX (Invitrogen), washed with PBS, and then blocked for 30 min at room temperature (RT) with 1% BSA in PBS (BSA/PBS). The coverslips were then incubated overnight at 4° C. with a primary antibody solution in BSA/PBS. The coverslips were washed with BSA/PBS and incubated for 60 min at RT with Alexa Fluor®-conjugated secondary antibodies (Invitrogen) in BSA/PBS, with the final 30 min including incubation with Hoescht 33258. The coverslips were then washed sequentially with BSA/PBS, PBS, and water and finally mounted on microscope slides using Aqua Poly/Mount (Polysciences Inc.). Imaging data was acquired using Zeiss LSM 510 META scanning confocal microscope.
Although the function of OSBP1 is not yet fully elucidated, several cellular activities have been observed. For instance, OSBP1 translocates from cytoplasmic sites to the trans-Golgi network (TGN) upon addition of 25-OHC to cells. HCT-116 cells were treated with ORPphilins for short time periods (4 h) and the effects on OSBP1 localization monitored using immunofluorescence microscopy.
OSBP1 (green) and trans-Golgi protein P230 (red) were visualized in HCT-116 cells using indirect immunofluorescence microscopy. Cells were treated with compound for 4 h, fixed with 3.7% formaldehyde/PBS, washed, and permeabilized using 0.5% Triton X-100 in PBS. Proteins were labelled using specific primary antibodies against OSBP1 and P230 overnight at 4° C. After washing, cells were treated with Alexa Fluor 488 and Alexa Fluor 546 secondary antibodies for 1 h at RT.

HCT-116 cells = assay: [3H]-serine pulse-labeling, HCT-116; format: cell-based, human; settings: range of concentrations
Method: (§2) Sphingomyelin is biosynthesized from ceramide at the Golgi apparatus. Ceramide is primarily transported from the ER to the Golgi by ceramide transport protein (CERT), and the transport activity of CERT is both OSBP1- and VAP-A dependent. […] To determine whether the ORPphilins affect sphingomyelin synthesis, pulse-labeling with [^3H]-serine was performed in CHO-K1 and HCT-116 cells and the amount of tritium incorporated into sphingomyelin and other lipids then measured. Cells were treated with vehicle or compound for 6 h, and in the last 2 h the cells were pulsed with 10 μCi [^3H]-serine. Lipids were extracted and isolated by TLC, and label incorporation into sphingomyelin was measured by scintillation counting.

HCT-116 p21^−/− cells = assay: cells; settings: HCT-116 p21-/-
Method: (§3) Cell viability assay. Cells were plated into 96-well plates in 75 μL of media. After 24 h, a time-zero plate was produced by adding 25 μL of media and 20 μL of CellTiter-Blue® (Promega) to the wells, followed by incubation at 37° C. for 90 min. Fluorescence (544 nm excitation; 590 nm emission) was detected using a SPECTRAmax® Gemini XS to establish cell viability at time of dosing. Then, compounds were serially diluted in media and delivered to the cells as 4× solutions in 25 μL of media. At either 48 h or 72 h, CellTiter-Blue® was added and the fluorescence was recorded as described above.
(§4) Tasdemir et al. (2002) J Nat Prod 65:210-4. GI50-values of the compounds were determined in HCT-116 p21^+/+ (wt) and p21^−/− cells after 48 h using a resazurin redox dye to measure cell viability.
(§5) Methods are described above in the General Methods section.

[2] = test system: glioblastoma and leukemia cells; settings: cited from earlier work
[3] = test system: CLL (chronic lymphocytic leukemia) cells taken from patients; settings: read-out: GI50 fludarabine-refractory CLL cells; cited from earlier work
normal astrocytes = settings: cited from earlier work
normal lymphocytes = settings: cited from earlier work
A549 cells = assay: cells; format: cell-based, human; settings: A549 cells, 48 h; read-out: GI50 (nM) 48 h
Source text: Methods are essentially as described above in the General Methods section in connection with assays using HCT-116 cells.

U87-MG = settings: cited from earlier work
NCI-60 = settings: read-out: average GI50 against the NCI-60; cited from earlier work
[4] = test system: HCT-116 p21^+/+ (wt) cells; assay: Growth inhibition (cell viability assay) of HCT-116 p21+/+ cells; settings: for GI50: HCT-116 p21+/+
Method: as §3, §4, §5

[5] = test system: CERT protein levels in HCT-116 cells or A549 cells; assay: CERT protein levels; format: cell-based, human; settings: high dose (GI90)
Method: Suppression of CERT expression is reported to cause a significant reduction in basal SM biosynthesis. Therefore, 1 and 2 were tested for their ability to induce a reduction in CERT levels, akin to the effects of 1 and 2 on OSBP1 levels.

[6] = test system: OSBP1 localization in A549 cells; assay: OSBP1 localization by immunofluorescence microscopy, A549; format: cell-based, human
Method: as §1
Perturbations of OSBP1 localization by 1, 2, and 4b in A549 cells were also observed.

[7] = biological target: OSBP (oxysterol-binding protein) (Homo sapiens, UniProt P22059); settings: cited from earlier work
OSBP (oxysterol-binding protein), sequence (P22059 whole entry, species assumed): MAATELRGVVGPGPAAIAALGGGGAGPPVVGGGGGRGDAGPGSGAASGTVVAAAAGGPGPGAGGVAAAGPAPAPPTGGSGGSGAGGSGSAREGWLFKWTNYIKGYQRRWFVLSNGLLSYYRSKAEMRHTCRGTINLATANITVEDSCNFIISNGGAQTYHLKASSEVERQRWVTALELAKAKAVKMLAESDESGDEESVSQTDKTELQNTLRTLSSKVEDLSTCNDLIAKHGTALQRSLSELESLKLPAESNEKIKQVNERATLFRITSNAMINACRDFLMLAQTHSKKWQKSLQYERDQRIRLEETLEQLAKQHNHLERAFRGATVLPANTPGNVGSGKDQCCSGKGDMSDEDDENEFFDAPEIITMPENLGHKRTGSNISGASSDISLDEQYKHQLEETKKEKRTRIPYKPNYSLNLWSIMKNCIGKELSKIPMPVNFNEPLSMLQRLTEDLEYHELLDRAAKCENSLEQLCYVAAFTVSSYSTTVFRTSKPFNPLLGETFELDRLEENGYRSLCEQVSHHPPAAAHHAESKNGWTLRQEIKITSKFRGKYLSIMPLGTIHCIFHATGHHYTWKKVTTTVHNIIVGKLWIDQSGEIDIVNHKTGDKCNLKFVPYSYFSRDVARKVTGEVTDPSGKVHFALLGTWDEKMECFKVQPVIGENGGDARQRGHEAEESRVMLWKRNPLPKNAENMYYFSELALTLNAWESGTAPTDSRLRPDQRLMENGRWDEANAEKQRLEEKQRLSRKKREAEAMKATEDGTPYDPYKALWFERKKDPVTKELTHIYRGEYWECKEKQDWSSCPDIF

CHO-K1 cells = assay: Sphingomyelin biosynthesis, [3H]-serine pulse-labeling, CHO-K1; format: cell-based
Method: as §2

tumor xenograft = settings: i.p. 9.3 mg/kg (Q2Dx4); cited from earlier work

COc1ccc(C(=O)O[C@H]2[C@H](O[C@@H]3[C@@H](OC(C)=O)[C@H](O[C@H]4C[C@H]5[C@@H]6CC=C7C[C@@H](O)CC[C@]7(C)[C@H]6CC[C@]5(C)[C@@]4(O)[C@H](C)C(=O)CCC(C)C)OC[C@@H]3O)OC[C@@H](O)[C@@H]2O)cc1 [OSW-1]
GI50 (HL-60): 0.04 nM
times more active in leukemia cells versus normal lymphocytes (HL-60): 40 times
increased life span (P388 tumor cells): 59%
OSBP1 localization [1]: caused OSBP1 to localize to a perinuclear position that did not co-localize with p230
ceramide labeling (HCT-116 cells): no effect
GI50 (HCT-116 p21^−/− cells; read-out: GI50 (nM) 48 h p21^−/−, 48 h): 0.2 ± 0.03 nM
GI50 (HCT-116 p21^−/− cells; read-out: GI50 (nM) 72 h p21^−/−, 72 h): 0.04 nM
fold more cytotoxic toward glioblastoma and leukemia cells than non-transformed astrocytes and lymphocytes [2]: 30-150 fold
GI50 [3]: 0.3 nM
GI50 (normal astrocytes): 7.13 nM
GI50 (normal lymphocytes): 1.73 nM
GI50 (A549 cells): 0.5 ± 0.24 nM
GI50 (U87-MG): 0.047 nM
selectivity, malignant brain tumor cells versus normal astrocytes (U87-MG): 150 fold
GI50 (NCI-60): 0.78 nM
GI50 ([4]; read-out: GI50 (nM) 48 h p21^+/+, 48 h): 28 nM
GI50 ([4]; read-out: GI50 (nM) 72 h p21^+/+, 72 h): 1.6 ± 0.6 nM
effect on CERT protein levels [5]: did not affect
OSBP1 localization [6]: induced dispersal or vesiculation of OSBP1

C[C@@H]1[C@]2(O[C@H]3C=C4[C@@H]5CC[C@H]6Cc7nc8c(nc7C[C@]6(C)[C@H]5C[C@@H](O)[C@]4(C)[C@]31O)C[C@@H]1CC[C@H]3C4=CC[C@@H]5[C@H](C)[C@@]6(OC[C@]45C(=O)C[C@@H]3[C@@]1(C)C8)OC(C)(C)C[C@H]6O)O[C@](C)(CO)C[C@H]2O [cephalostatin 1, Cephalostatin 1]
OSBP1 localization [1]: OSBP1 occupying a perinuclear position with little co-localization of the dispersed p230 marker
OSBP1 localization ([1]; listed as 1): partially localize to the plasma membrane
effect on CERT protein levels [5]: did not affect
OSBP1 localization [6]: induced dispersal or vesiculation of OSBP1

C[C@H](CCCC(C)(C)O)[C@H]1CC[C@H]2[C@@H]3CC=C4C[C@@H](O)CC[C@]4(C)[C@H]3CC[C@]12C [Compound 25-OHC, 25-hydroxycholesterol]
Kd [7]: 37 nM
increase in the biosynthesis of sphingomyelin (SM) (CHO-K1 cells; 5 μM, 6 h): ca. 4 fold
SM biosynthesis at GI90 dose (CHO-K1 cells; 15 μM): robust stimulation

schweinfurthin A
OSBP1 localization [1]: caused OSBP1 to accumulate at perinuclear positions with a large degree of co-localization with the trans-Golgi marker p230
toxicity (tumor xenograft): without overt toxicity
tumor volume (tumor xenograft): reduction in tumor volume compared to vehicle-treated controls
GI50 (NCI-60): 360 nM
fold less cytotoxic than the other ORPphilins [4]: 100-300 fold
